Assay results from ChEMBL document CHEMBL1201862, “PubChem BioAssay data set” (2004).
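Briefly, cells in 96-well plates were exposed to five compound concentrations for 48 h, and endpoints were estimated by linear interpolation. Abbreviation: GI50, concentration required for 50% inhibition of growth.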 Calls of active or inactive are those of the source. Rule as the data show it: active = GI50 up to about 1.1 µM and inactive = higher.

How the values were obtained:
Test in all cases: inhibition of tumour cell growth, NCI panel, 48 h
TK-10 = system: TK-10
786-0 = system: 786-0
UACC-257 = system: UACC-257
HL-60 = system: HL-60
NCI/ADR-RES = system: NCI/ADR-RES
SR = system: SR
COLO 205 = system: COLO 205
Malme-3M = system: Malme-3M
SNB-75 = system: SNB-75
HCC 2998 = system: HCC 2998
OVCAR-4 = system: OVCAR-4
SK-OV-3 = system: SK-OV-3
DU-145 = system: DU-145
PC-3 = system: PC-3
MDA-MB-435 = system: MDA-MB-435
SF-539 = system: SF-539
HCT-15 = system: HCT-15
SN12C = system: SN12C
U-251 = system: U-251
LOX IMVI = system: LOX IMVI

| Structure (SMILES) | GI50 (TK-10) | GI50 (786-0) | GI50 (UACC-257) | GI50 (HL-60) | GI50 (NCI/ADR-RES) | GI50 (SR) | GI50 (COLO 205) | GI50 (Malme-3M) | GI50 (SNB-75) | GI50 (HCC 2998) | GI50 (OVCAR-4) | GI50 (SK-OV-3) | GI50 (DU-145) | GI50 (PC-3) | GI50 (MDA-MB-435) | GI50 (SF-539) | GI50 (HCT-15) [µM] | GI50 (SN12C) | GI50 (U-251) | GI50 (LOX IMVI) |
| --- | --- | --- | --- | --- | --- | --- | --- | --- | --- | --- | --- | --- | --- | --- | --- | --- | --- | --- | --- | --- |
| COc1cc(OC)c2c(O)c(S(=O)(=O)c3ccc(C)cc3)c(=O)oc2c1 | > 100 µM (inactive) | > 100 µM (inactive) | > 100 µM (inactive) | > 100 µM (inactive) | > 100 µM (inactive) | > 100 µM (inactive) | > 100 µM (inactive) | > 100 µM (inactive) | > 100 µM (inactive) | > 100 µM (inactive) | > 100 µM (inactive) | > 100 µM (inactive) | > 100 µM (inactive) | > 100 µM (inactive) | > 100 µM (inactive) | > 100 µM (inactive) | > 100 | > 100 µM (inactive) | 96.6 µM (inactive) |  |
| CCCCn1c2c(n(CCCC)c1=[Se])-c1c(n(CCCC)c(=[Se])n1CCCC)S[Se][Se]S2 | 5.4 µM (inactive) | 29.4 µM (inactive) | 32.8 µM (inactive) |  | 19.5 µM (inactive) | 20.7 µM (inactive) | 8.65 µM (inactive) | 3.52 µM (inactive) | 20.6 µM (inactive) | 30.4 µM (inactive) | 9.27 µM (inactive) | 24.5 µM (inactive) | 25 µM (inactive) | 14.9 µM (inactive) | 49.9 µM (inactive) | 20.8 µM (inactive) | 13.7 | 24.6 µM (inactive) | 11.4 µM (inactive) | 16.5 µM (inactive) |
| C[n+]1c(-c2ccc(/C=N/NC(=O)C(=O)N/N=C/c3ccc(-c4cn5ccccc5[n+]4C)cc3)cc2)cn2ccccc21 | 56.6 µM (inactive) | > 100 µM (inactive) | > 100 µM (inactive) | > 100 µM (inactive) | > 100 µM (inactive) |  | > 100 µM (inactive) | > 100 µM (inactive) | > 100 µM (inactive) | > 100 µM (inactive) | > 100 µM (inactive) | > 100 µM (inactive) | > 100 µM (inactive) | > 100 µM (inactive) | > 100 µM (inactive) | > 100 µM (inactive) | > 100 | > 100 µM (inactive) | > 100 µM (inactive) |  |
| COc1ccc(/C=N/NC(=O)C2=C(N)N(c3ccccc3)C(=C(C#N)C#N)S2)cc1 | > 100 µM (inactive) | 62.5 µM (inactive) | > 100 µM (inactive) | > 100 µM (inactive) | > 100 µM (inactive) | > 100 µM (inactive) | > 100 µM (inactive) | > 100 µM (inactive) | 16 µM (inactive) | > 100 µM (inactive) | > 100 µM (inactive) | 57 µM (inactive) | > 100 µM (inactive) | > 100 µM (inactive) | > 100 µM (inactive) | 48.1 µM (inactive) | > 100 | > 100 µM (inactive) | 63.8 µM (inactive) |  |
| CCn1c(-c2c(Cl)cc(O)cc2Cl)cc2c(Cl)cc(O)cc21 | 13.1 µM (inactive) | 4.66 µM (inactive) | 11.7 µM (inactive) | 3.43 µM (inactive) | 5.13 µM (inactive) | 5.45 µM (inactive) | 15.2 µM (inactive) | 14 µM (inactive) | 4.18 µM (inactive) |  | 4.85 µM (inactive) | 7.36 µM (inactive) | 4.48 µM (inactive) | 9.04 µM (inactive) | 1.67 µM (inactive) | 3.24 µM (inactive) | 3.48 | 13.3 µM (inactive) | 4.03 µM (inactive) | 6.38 µM (inactive) |
| O=C(CCc1cccc(O)c1)NCCc1ccc(O)cc1 | > 100 µM (inactive) | > 100 µM (inactive) | > 100 µM (inactive) | > 100 µM (inactive) | > 100 µM (inactive) | > 100 µM (inactive) | > 100 µM (inactive) | > 100 µM (inactive) |  |  | > 100 µM (inactive) | > 100 µM (inactive) | > 100 µM (inactive) | > 100 µM (inactive) | > 100 µM (inactive) | > 100 µM (inactive) | > 100 | > 100 µM (inactive) | > 100 µM (inactive) | > 100 µM (inactive) |
| CC1CNC(NS(=O)(=O)c2cc(C(=O)Nc3ccccc3)c(Cl)cc2S)=NN1 (stereo unspecified) | > 100 µM (inactive) | 92.3 µM (inactive) | > 100 µM (inactive) | 66.2 µM (inactive) | > 100 µM (inactive) | 41.8 µM (inactive) | 48.6 µM (inactive) | 31.2 µM (inactive) |  | 46.1 µM (inactive) | 67.3 µM (inactive) | 81.5 µM (inactive) | > 100 µM (inactive) | 29 µM (inactive) | 17.7 µM (inactive) | 38.4 µM (inactive) | 33.8 | > 100 µM (inactive) | 39.1 µM (inactive) | 21 µM (inactive) |
